Measured values as given in paper PMC5078989, “Targeted inhibition of the COP9 signalosome for treatment of cancer” (Nature Communications, 2016).

Test system: panel of cancer cell lines
Assay: Cell viability (CellTiter-Glo) dose-response across cancer cell line panel;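 also: after 72 h compound incubation with CellTiter-Glo ATP readout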
Assay type: cell-based, human
Conditions: Homo sapiens
Description: Next, we explored the effect of CSN5 inhibition on the viability of cancer cells. To obtain a comprehensive picture, we generated dose–response curves with a CSN5 inhibitor across more than 500 cancer cell lines in a previously described standardized setting[47] (Supplementary Data 1).
A standardized CellTiter-Glo Assay (Promega #G7570) based on the quantification of ATP was applied according to the manufacturer's protocol to measure the amount of viable cells in culture. In brief, cells were seeded into 384-well plates at optimal density for each cell line. After 4 h, compounds were added at different concentrations in growth medium and incubated for another 72 h in a humidifying chamber at 37 °C and 5% CO2. […] EC50 values were calculated from the plot of percentage of inhibition versus inhibitor concentration using the nonlinear regression analysis software Origin 7.5SR6 (OriginLab Corp.).

## COCc1ccccc1NCc1ccc([C@@H]2[C@H](O)CCCc3cncn32)c(-c2ccccc2Cl)c1 [CSN5i-2e, (5R,6R)-5-(2′-chloro-5-(((2-(methoxymethyl)phenyl)amino)methyl)-[1,1′-biphenyl]-2-yl)-6,7,8,9-tetrahydro-5H-imidazo[1,5-a]azepin-6-ol]
MSTO-211H, MSTO-211H cells
  EC50: 10.8 µM
MV4-11, MV-4-11 cells
  EC50: 6.71 µM
Malme-3M, Malme-3M cells
  EC50: 13.6 µM
Mono-Mac-1, MONO-MAC-1 cells
  EC50: 3.69 µM
NALM-6, NALM-6 cells
  EC50: 6.94 µM
NB1, NB-1 cells
  EC50: 11.7 µM
NB-4, NB-4 cells
  EC50: 8.86 µM
NCI-H23, NCI-H23 cells
  EC50: 23.9 µM
NCI-H28, NCI-H28 cells
  EC50: 15 µM
NCI-H146, NCI-H146 cells
  EC50: 11.6 µM
NCI-H211, NCI-H211 cells
  EC50: 20.6 µM
NCI-H322, NCI-H322 cells
  EC50: 12.9 µM
NCI-H441, NCI-H441 cells
  EC50: 24.7 µM
NCI-H460, NCI-H460 cells
  EC50: 10.1 µM
NCI-H661, NCI-H661 cells
  EC50: 20.1 µM
NCI-H747, NCI-H747 cells
  EC50: 10.7 µM
NCI-H810, NCI-H810 cells
  EC50: > 30 µM
NCI-H838, NCI-H838 cells
  EC50: > 30 µM
NCI-H841, NCI-H841 cells
  EC50: 11 µM
NCI-H1048, NCI-H1048 cells
  EC50: 15.8 µM
NCI-H1155, NCI-H1155 cells
  EC50: 8.05 µM
NCI-H1299, NCI-H1299 cells
  EC50: 8.56 µM
NCI-H1339, NCI-H1339 cells
  EC50: 11.2 µM
NCI-H1341 cells
  EC50: 10.2 µM
NCI-H1355, NCI-H1355 cells
  EC50: 12 µM
NCI-H1373, NCI-H1373 cells
  EC50: 13 µM
NCI-H1437, NCI-H1437 cells
  EC50: 11.7 µM
NCI-H1568, NCI-H1568 cells
  EC50: 11.2 µM
NCI-H1581, NCI-H1581 cells
  EC50: 7.75 µM
NCI-H1650, NCI-H1650 cells
  EC50: 12.6 µM
NCI-H1666, NCI-H1666 cells
  EC50: 12.9 µM
NCI-H1693, NCI-H1693 cells
  EC50: 14.7 µM
NCI-H1703, NCI-H1703 cells
  EC50: 6.5 µM
NCI-H1755, NCI-H1755 cells
  EC50: 12.8 µM
NCI-H1975, NCI-H1975 cells
  EC50: 11.3 µM
NCI-H2023, NCI-H2023 cells
  EC50: 12.4 µM
NCI-H2030, NCI-H2030 cells
  EC50: 29.9 µM
NCI-H2073, NCI-H2073 cells
  EC50: 20.3 µM
NCI-H2087, NCI-H2087 cells
  EC50: 13 µM
NCI-H2110, NCI-H2110 cells
  EC50: 11.8 µM
NCI-H2122, NCI-H2122 cells
  EC50: 10.1 µM
NCI-H2170, NCI-H2170 cells
  EC50: 10.4 µM
NCI-H2171, NCI-H2171 cells
  EC50: 17.6 µM
NCI-H2228, NCI-H2228 cells
  EC50: > 30 µM
NCI-H2286, NCI-H2286 cells
  EC50: 10.5 µM
NCI-H2444, NCI-H2444 cells
  EC50: 11.6 µM
NCI-H2452, NCI-H2452 cells
  EC50: > 30 µM
NCI-H3255, NCI-H3255 cells
  EC50: 13.2 µM
NO36 cells
  EC50: 13.1 µM
NOMO-1, NOMO-1 cells
  EC50: 7.28 µM
NUGC-3, NUGC-3 cells
  EC50: 9.54 µM
OCI-AML-3, OCI-AML3 cells
  EC50: 7.14 µM
OCI-AML-5, OCI-AML5 cells
  EC50: 9.5 µM
OCI-Ly3, OCI-LY3 cells
  EC50: 5.42 µM
OCI-M1, OCI-M1 cells
  EC50: 7.25 µM
ONCO-DG-1, ONCO-DG-1 cells
  EC50: 7.45 µM
OUMS-23, OUMS-23 cells
  EC50: 12.2 µM
OV56, OV56 cells
  EC50: 12.7 µM
OVCAR-4, OVCAR-4 cells
  EC50: 9.93 µM
OVISE cells
  EC50: 12.1 µM
P3HR-1, P3HR-1 cells
  EC50: 7.82 µM
P12-Ichikawa, P12-ICHIKAWA cells
  EC50: 7.02 µM
P31-FUJ, P31/FUJ cells
  EC50: 13.4 µM
PANC-1, PANC-1 cells
  EC50: 12.2 µM
PANC-03-27, Panc 03.27 cells
  EC50: 21.9 µM
PC-3, PC-3 cells
  EC50: 10.7 µM
PC-14, PC-14 cells
  EC50: 12.6 µM
PE/CA-PJ49 cells
  EC50: 12.7 µM
PF-382, PF-382 cells
  EC50: 4.99 µM
PK-1, PK-1 cells
  EC50: 15.9 µM
PK-45H cells
  EC50: 9.52 µM
PK-59, PK-59 cells
  EC50: 11.5 µM
PL-21, PL-21 cells
  EC50: 6.39 µM
PLC-PRF-5, PLC/PRF/5 cells
  EC50: 19.8 µM
PSN1, PSN1 cells
  EC50: 11 µM
PaTu 8988s, PA-TU-8988S cells
  EC50: 26.6 µM
PaTu 8988t, PA-TU-8988T cells
  EC50: 10.6 µM
Panc 02.03, Panc 02.03 cells
  EC50: > 30 µM
Panc 04.03, Panc 04.03 cells
  EC50: 13.1 µM
QGP-1, QGP-1 cells
  EC50: 11.8 µM
RCM-1, RCM-1 cells
  EC50: 13.6 µM
RD, RD cells
  EC50: 9.86 µM
RERF-LC-AI cells
  EC50: 11.7 µM
RERF-LC-MS cells
  EC50: 24.1 µM
RKN cells
  EC50: 28.9 µM
RKO, RKO cells
  EC50: 17.9 µM
RPMI 8402, RPMI-8402 cells
  EC50: 7.36 µM
RPMI-7951, RPMI-7951 cells
  EC50: 11.4 µM
RT-112, RT-112 cells
  EC50: 11.2 µM
Rh41, RH-41 cells
  EC50: 4.52 µM
SCC-25, SCC-25 cells
  EC50: 11.6 µM
SCaBER, SCaBER cells
  EC50: > 30 µM
SEM cells
  EC50: 9.47 µM
SF-268, SF-268 cells
  EC50: 12.7 µM
SH-4, SH-4 cells
  EC50: 11.1 µM
SH-10-TC, SH-10-TC cells
  EC50: 10.6 µM
SH-SY5Y, SH-SY5Y cells
  EC50: 8.13 µM
SJRH30, SJRH30 cells
  EC50: 15.5 µM
SK-CO-1, SK-CO-1 cells
  EC50: 10.7 µM
SK-ES1, SK-ES-1 cells
  EC50: 13.2 µM
SK-HEP1, SK-HEP-1 cells
  EC50: > 30 µM
SK-LU-1, SK-LU-1 cells
  EC50: 8.59 µM
SK-MEL3, SK-MEL-3 cells
  EC50: 10.3 µM
SK-MEL-2, SK-MEL-2 cells
  EC50: 14.9 µM
SK-MEL-5, SK-MEL-5 cells
  EC50: 10.6 µM
SK-MEL-28, SK-MEL-28 cells
  EC50: 13.2 µM
SK-MEL-30, SK-MEL-30 cells
  EC50: 12.1 µM
SK-MEL-31 cells
  EC50: 23.9 µM
SK-MES-1, SK-MES-1 cells
  EC50: 28 µM
SK-N-SH, SK-N-SH cells
  EC50: 26.6 µM
SKM-1, SKM-1 cells
  EC50: 13.6 µM
SKNBE2, SK-N-BE(2) cells
  EC50: 11.4 µM
SNB-19, SNB-19 cells
  EC50: 25 µM
SNG-M cells
  EC50: 20.9 µM
SNU668, SNU-668 cells
  EC50: 11.5 µM
SNU878, SNU-878 cells
  EC50: 7.43 µM
SNU-8 cells
  EC50: > 30 µM
SNU-16, SNU-16 cells
  EC50: 8.93 µM
SNU-61 cells
  EC50: > 30 µM
SNU-175 cells
  EC50: 17.1 µM
SNU-213 cells
  EC50: 13.4 µM
SNU-324 cells
  EC50: 12.8 µM
SNU-349 cells
  EC50: > 30 µM
SNU-387, SNU-387 cells
  EC50: 9.94 µM
SNU-398, SNU-398 cells
  EC50: 6.84 µM
SNU-410 cells
  EC50: 22.2 µM
SNU-423, SNU-423 cells
  EC50: 12.7 µM
SNU-449, SNU-449 cells
  EC50: 25.6 µM
SNU-475, SNU-475 cells
  EC50: > 30 µM
